This is an account of results in patent US9546172B2, “Pyrazolo[3,4-d]pyrimidine and pyrazolo[2,3-d]pyrimidine compounds as kinase inhibitors” (Pharmacyclics LLC, priority 2011, dated 2017).

Assay type in all cases: biochemical
In one experiment the target is T1, Btk (Homo sapiens, UniProt Q06187).
T1 construct: purified from insect cells as a full-length construct containing a N-terminal 6×-His tag; 6xHis (N); host or cells: insect cells (baculovirus Sf21 in Method B)
Briefly: Btk in vitro inhibitory activity (one of Methods A, B, C). Particulars: determined in one of three in vitro assays (Examples 125-127). In outline: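 Values come from one of three formats: TR-FRET (665/615 nm ratio; Ki(app) converted to IC50 with [ATP]=Km, 0.5 nM Btk), mobility-shift product/sum ratio over 12 concentrations with 4-parameter fit, or radiometric filter binding using His-tagged full-length human Btk (8 nM), 0.2 mg/mL poly-Glu-Tyr, 1 μM ATP, 120 min RT.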

Another experiment deals with T2, Tec (Homo sapiens, UniProt P42680).
T2 sequence (P42680 1-631): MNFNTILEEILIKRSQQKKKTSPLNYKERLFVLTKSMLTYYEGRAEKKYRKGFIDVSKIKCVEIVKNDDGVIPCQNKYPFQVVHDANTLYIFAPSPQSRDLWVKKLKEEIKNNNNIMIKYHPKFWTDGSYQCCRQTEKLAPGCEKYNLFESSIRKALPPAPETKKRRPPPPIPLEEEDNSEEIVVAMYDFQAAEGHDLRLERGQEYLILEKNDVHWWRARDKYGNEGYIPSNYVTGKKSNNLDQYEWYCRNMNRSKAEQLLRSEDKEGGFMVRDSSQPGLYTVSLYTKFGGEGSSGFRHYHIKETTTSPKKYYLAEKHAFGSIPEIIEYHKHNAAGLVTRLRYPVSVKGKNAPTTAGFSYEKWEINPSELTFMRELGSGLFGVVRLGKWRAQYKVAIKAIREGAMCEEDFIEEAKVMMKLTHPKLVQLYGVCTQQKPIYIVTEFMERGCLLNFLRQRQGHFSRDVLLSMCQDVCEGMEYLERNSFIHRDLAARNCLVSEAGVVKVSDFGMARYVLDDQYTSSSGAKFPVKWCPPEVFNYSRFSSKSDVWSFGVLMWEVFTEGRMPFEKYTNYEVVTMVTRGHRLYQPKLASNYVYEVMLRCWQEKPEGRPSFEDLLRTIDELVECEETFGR
Description: Tec kinase inhibition. The method, then: (§1) Btk kinase activity was determined using a time-resolved fluorescence resonance energy transfer (TR-FRET) methodology. Measurements were performed in a reaction volume of 50 μL using 96-well assay plates. […] The reaction was quenched by the addition of 1.2 equivalents of EDTA (relative to divalent cation) in 25 μL of 1× Lance buffer (Perkin-Elmer). Streptavidin-APC (Perkin-Elmer) and Eu-labeled p-Tyr100 antibody (Perkin-Elmer) in 1× Lance buffer were added in a 25 μL volume to give final concentrations of 100 nM and 2.5 nM, respectively, and the mixture was allowed to incubate for one hour. The TR-FRET signal was measured on a multimode plate reader with an excitation wavelength (λEx) of 330 nm and detection wavelengths (λEm) of 615 and 665 nm. Activity was determined by the ratio of the fluorescence at 665 nm to that at 615 nm. For each compound, enzyme activity was measured at various concentrations of compound. Negative control reactions were performed in the absence of inhibitor in replicates of six, and two no-enzyme controls were used to determine baseline fluorescence levels Inhibition constants, Ki(app), were obtained using the program BatchKi (Kuzmic et al. (2000), Anal. Biochem. 286:45-50). IC50s were obtained according to the equation: IC50={Ki(app)/(1+[ATP]/Km^ATP)}+[E]total/2; For all kinases, [ATP]=Km^ATP, [Btk]total=0.5 nM and [Lck]total=6 nM.

The next experiment addresses EGFR (Homo sapiens, UniProt P00533). Description: EGFR kinase inhibition.
A further experiment concerns the target Lck (Homo sapiens, UniProt P06239). Briefly: Lck kinase inhibition. The method, then: as §1
The target in a further experiment is C-src (Homo sapiens, UniProt P12931). Description: C-src kinase inhibition. As for the experimental part: as §1
The target of the next experiment is Lyn (Homo sapiens, UniProt P07948). Briefly: Lyn kinase inhibition.
The target in a further experiment is RET (Homo sapiens, UniProt P07949). Briefly: RET kinase inhibition.
The target of a further experiment is BLK (Homo sapiens, UniProt P51451). Description: BLK kinase inhibition. The method, then: as §1
For the next experiment, the target named is T3, BMX (Homo sapiens, UniProt P51813).
T3 sequence (P51813 1-675): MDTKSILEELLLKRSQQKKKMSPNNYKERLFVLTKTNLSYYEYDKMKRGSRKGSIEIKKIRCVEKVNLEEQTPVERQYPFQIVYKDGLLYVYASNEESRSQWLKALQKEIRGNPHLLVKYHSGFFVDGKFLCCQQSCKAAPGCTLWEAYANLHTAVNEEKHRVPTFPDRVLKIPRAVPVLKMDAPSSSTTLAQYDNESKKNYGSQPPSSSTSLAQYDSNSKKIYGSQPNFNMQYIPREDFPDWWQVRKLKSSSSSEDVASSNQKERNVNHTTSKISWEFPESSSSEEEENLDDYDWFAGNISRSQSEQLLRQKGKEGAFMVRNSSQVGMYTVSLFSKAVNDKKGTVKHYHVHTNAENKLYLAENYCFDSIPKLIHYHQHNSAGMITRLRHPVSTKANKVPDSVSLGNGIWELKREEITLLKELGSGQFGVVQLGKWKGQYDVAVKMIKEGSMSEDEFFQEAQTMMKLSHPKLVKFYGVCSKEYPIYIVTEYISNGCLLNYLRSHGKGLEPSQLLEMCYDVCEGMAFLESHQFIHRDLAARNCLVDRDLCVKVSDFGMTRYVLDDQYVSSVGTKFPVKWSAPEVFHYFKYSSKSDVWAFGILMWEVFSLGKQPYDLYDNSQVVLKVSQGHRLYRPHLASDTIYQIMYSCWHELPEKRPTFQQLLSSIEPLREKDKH
Briefly: BMX kinase inhibition.

The next experiment has as its target CSK (Homo sapiens, UniProt P41240). Description: CSK kinase inhibition.

By IC50 is commonly meant the concentration that inhibits the measured activity by half.

Molecules are shown by their SMILES.

Chain of BLK (P51451 whole entry): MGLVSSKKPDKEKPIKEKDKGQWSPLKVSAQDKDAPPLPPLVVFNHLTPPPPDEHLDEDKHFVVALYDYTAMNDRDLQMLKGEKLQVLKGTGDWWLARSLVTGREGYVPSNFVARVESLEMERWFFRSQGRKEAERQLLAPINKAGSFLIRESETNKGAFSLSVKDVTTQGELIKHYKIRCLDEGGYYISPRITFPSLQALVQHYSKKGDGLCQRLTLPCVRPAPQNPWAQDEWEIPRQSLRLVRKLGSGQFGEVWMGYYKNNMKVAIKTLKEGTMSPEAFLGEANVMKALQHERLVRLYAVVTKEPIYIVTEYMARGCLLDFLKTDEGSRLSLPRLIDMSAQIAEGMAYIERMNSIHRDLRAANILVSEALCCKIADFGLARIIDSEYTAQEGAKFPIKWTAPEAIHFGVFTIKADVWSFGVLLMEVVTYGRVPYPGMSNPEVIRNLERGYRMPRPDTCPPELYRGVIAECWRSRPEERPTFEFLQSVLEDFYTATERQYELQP
T1 sequence (Q06187 whole entry): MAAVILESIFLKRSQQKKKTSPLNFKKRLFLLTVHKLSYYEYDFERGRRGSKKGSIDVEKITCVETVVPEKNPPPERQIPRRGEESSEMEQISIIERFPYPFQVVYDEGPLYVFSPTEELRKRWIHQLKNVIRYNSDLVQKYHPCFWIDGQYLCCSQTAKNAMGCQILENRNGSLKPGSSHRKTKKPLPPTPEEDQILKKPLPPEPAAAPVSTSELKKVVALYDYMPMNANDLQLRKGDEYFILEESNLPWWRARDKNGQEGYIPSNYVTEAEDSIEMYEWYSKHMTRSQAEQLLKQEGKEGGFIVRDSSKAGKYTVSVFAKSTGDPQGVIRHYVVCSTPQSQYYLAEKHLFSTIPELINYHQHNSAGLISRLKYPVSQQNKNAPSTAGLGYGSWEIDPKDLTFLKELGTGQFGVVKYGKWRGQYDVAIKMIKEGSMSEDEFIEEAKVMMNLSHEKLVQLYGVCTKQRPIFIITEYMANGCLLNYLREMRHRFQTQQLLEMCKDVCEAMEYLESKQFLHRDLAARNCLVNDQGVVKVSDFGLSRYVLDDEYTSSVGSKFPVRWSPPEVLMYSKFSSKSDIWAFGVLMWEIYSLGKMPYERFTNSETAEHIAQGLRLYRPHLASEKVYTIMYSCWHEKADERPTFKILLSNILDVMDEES
Chain of Lyn (P07948 whole entry): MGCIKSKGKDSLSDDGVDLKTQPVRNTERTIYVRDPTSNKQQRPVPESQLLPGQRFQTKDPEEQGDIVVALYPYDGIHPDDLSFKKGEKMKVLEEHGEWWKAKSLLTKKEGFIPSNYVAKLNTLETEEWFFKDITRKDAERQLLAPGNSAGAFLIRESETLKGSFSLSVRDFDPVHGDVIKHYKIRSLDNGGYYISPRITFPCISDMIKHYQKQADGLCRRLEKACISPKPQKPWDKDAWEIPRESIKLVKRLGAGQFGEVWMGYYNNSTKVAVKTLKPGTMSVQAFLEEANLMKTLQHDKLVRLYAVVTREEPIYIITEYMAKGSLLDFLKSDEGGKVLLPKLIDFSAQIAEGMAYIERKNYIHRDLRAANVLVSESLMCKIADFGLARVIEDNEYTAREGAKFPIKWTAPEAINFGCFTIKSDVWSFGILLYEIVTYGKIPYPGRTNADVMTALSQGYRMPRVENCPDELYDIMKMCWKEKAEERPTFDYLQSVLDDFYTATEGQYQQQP
Chain of C-src (P12931 whole entry): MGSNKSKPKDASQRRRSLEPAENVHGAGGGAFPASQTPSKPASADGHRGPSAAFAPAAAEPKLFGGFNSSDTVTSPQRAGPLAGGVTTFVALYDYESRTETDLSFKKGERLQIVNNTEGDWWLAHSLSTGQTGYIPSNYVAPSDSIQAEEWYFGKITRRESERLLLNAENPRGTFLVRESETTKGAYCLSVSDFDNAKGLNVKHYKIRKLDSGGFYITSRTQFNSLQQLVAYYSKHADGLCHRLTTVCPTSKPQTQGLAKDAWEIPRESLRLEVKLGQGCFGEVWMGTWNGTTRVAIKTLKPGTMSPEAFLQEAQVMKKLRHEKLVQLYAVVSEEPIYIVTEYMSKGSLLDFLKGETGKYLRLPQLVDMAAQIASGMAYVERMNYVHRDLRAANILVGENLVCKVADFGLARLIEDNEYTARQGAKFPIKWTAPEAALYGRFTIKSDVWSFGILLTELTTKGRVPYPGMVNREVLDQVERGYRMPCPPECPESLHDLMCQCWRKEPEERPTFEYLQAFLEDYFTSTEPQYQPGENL
Chain of Lck (P06239 whole entry): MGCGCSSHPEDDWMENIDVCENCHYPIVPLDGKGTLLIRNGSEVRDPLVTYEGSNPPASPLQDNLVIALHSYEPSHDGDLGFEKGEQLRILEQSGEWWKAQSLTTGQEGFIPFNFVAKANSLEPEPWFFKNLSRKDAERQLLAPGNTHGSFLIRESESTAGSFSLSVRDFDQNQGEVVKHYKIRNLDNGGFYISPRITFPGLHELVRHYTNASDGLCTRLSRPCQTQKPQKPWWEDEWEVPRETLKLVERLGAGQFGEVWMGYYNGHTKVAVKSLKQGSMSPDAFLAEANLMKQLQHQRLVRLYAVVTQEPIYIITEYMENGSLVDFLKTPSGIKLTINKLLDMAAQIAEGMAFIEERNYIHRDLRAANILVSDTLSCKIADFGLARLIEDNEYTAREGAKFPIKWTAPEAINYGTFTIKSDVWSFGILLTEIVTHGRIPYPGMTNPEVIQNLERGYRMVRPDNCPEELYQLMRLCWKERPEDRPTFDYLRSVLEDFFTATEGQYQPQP
Chain of CSK (P41240 whole entry): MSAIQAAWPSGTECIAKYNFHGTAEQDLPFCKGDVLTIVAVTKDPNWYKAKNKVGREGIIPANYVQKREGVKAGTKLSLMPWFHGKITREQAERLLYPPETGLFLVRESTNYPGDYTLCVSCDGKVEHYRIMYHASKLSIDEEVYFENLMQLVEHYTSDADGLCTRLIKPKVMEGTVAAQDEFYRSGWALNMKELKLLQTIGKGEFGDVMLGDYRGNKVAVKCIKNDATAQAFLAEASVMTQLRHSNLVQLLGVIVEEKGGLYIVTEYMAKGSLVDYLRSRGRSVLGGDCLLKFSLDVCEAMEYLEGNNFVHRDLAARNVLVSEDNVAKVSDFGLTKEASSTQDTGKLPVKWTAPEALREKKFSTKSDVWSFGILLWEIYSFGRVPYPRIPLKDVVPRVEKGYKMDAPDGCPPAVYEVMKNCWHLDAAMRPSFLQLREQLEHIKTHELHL
Chain of RET (P07949 29-1114): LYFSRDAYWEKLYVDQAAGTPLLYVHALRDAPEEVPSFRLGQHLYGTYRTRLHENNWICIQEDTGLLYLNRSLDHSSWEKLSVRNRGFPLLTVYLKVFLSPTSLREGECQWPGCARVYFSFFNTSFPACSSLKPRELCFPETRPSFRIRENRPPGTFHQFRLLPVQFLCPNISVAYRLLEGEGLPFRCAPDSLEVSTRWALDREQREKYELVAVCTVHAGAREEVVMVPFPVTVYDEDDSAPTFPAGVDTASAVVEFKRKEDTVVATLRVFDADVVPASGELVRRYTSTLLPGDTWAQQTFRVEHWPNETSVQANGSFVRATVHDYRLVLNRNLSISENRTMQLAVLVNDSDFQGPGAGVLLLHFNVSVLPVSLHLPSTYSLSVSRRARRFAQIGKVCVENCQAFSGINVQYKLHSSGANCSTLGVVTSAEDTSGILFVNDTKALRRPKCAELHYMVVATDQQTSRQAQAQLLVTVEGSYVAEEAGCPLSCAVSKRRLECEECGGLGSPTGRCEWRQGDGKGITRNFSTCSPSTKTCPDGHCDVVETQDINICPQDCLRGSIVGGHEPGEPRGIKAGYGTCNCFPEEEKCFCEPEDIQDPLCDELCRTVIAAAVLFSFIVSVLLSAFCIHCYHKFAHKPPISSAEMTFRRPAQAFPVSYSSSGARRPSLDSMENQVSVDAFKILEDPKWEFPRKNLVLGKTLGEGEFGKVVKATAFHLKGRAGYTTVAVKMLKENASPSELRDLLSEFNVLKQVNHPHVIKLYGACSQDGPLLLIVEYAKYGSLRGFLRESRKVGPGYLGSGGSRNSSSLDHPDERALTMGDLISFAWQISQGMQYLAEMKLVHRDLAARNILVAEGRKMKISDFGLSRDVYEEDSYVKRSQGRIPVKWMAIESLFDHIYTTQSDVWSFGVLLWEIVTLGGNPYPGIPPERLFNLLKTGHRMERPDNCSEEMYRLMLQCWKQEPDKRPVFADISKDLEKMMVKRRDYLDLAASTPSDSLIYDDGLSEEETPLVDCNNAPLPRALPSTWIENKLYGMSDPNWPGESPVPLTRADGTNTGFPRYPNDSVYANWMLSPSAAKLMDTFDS

On to `COc1ccc(-c2nn([C@@H]3CCN(C(=O)/C=C/CN(C)C)C3)c3ncnc(N)c23)cc1` [Example 5, (R,E)-1-(3-(4-amino-3-(4-methoxyphenyl)-1H-pyrazolo[3,4-d]pyrimidin-1-yl)pyrrolidin-1-yl)-4-(dimethylamino)but-2-en-1-one], for which the IC50 was under 100 nM at Btk; under 100 nM against Tec; over 1000 nM against EGFR; 100 to 1000 nM at Lck; 100 to 1000 nM against C-src; 100 to 1000 nM on Lyn. The IC50 on RET was 100 to 1000 nM; on BLK, under 100 nM; against BMX it was under 100 nM; at CSK, over 1000 nM.

Take `COc1cccc(-c2nn([C@@H]3CCN(C(=O)/C=C/CN(C)C)C3)c3ncnc(N)c23)c1` [Example 6, (R,E)-1-(3-(4-amino-3-(3-methoxyphenyl)-1H-pyrazolo[3,4-d]pyrimidin-1-yl)pyrrolidin-1-yl)-4-(dimethylamino)but-2-en-1-one]: the IC50 on Btk is under 100 nM; on Tec, under 100 nM; against EGFR, 100 to 1000 nM; against Lck, 100 to 1000 nM; against C-src it was under 100 nM; against Lyn it was 100 to 1000 nM. In addition, the half-maximal inhibitory concentration (IC50) against RET is 100 to 1000 nM; against BLK, under 100 nM; at BMX, under 100 nM; against CSK it was over 1000 nM.

As for `CN(C)C/C=C/C(=O)N1CC[C@@H](n2nc(-c3ccc(Cl)cc3F)c3c(N)ncnc32)C1` [Example 7, (R,E)-1-(3-(4-amino-3-(4-chloro-2-fluorophenyl)-1H-pyrazolo[3,4-d]pyrimidin-1-yl)pyrrolidin-1-yl)-4-(dimethylamino)but-2-en-1-one], the IC50 against Btk was under 100 nM; against Tec it was under 100 nM; against EGFR it was 100 to 1000 nM; against Lck, 100 to 1000 nM; against C-src, under 100 nM; at Lyn it was 100 to 1000 nM. The IC50 against RET is 100 to 1000 nM; against BLK, 100 to 1000 nM; at BMX it was under 100 nM; at CSK it was 100 to 1000 nM.

For the compound `COc1cc(-c2nn([C@@H]3CCN(C(=O)/C=C/CN(C)C)C3)c3ncnc(N)c23)ccc1F` [Example 8, (R,E)-1-(3-(4-amino-3-(4-fluoro-3-methoxyphenyl)-1H-pyrazolo[3,4-d]pyrimidin-1-yl)pyrrolidin-1-yl)-4-(dimethylamino)but-2-en-1-one], the IC50 against Btk was under 100 nM; at Tec, under 100 nM; at EGFR, 100 to 1000 nM; on Lck, 100 to 1000 nM; against C-src it was 100 to 1000 nM; on Lyn, over 1000 nM. Also, the IC50 against RET was over 1000 nM; against BLK, 100 to 1000 nM; on BMX it was under 100 nM; against CSK, over 1000 nM.

Turning to `COc1cc(-c2nn([C@@H]3CCN(C(=O)/C=C/CN(C)C)C3)c3ncnc(N)c23)ccc1C` [Example 9, (R,E)-1-(3-(4-amino-3-(3-methoxy-4-methylphenyl)-1H-pyrazolo[3,4-d]pyrimidin-1-yl)pyrrolidin-1-yl)-4-(dimethylamino)but-2-en-1-one], the IC50 at Btk was under 100 nM; at Tec it was under 100 nM; on EGFR it was under 100 nM; at Lck, under 100 nM; at C-src it was under 100 nM; on Lyn, 100 to 1000 nM. The IC50 against RET was over 1000 nM; on BLK, under 100 nM; against BMX it was under 100 nM; against CSK, 100 to 1000 nM.

In the case of `CN(C/C=C/C(=O)N1CC[C@@H](n2nc(-c3ccc(Cl)cc3)c3c(N)ncnc32)C1)C1CCC1` [Example 10, (R,E)-1-(3-(4-amino-3-(4-chlorophenyl)-1H-pyrazolo[3,4-d]pyrimidin-1-yl)pyrrolidin-1-yl)-4-(cyclobutyl(methyl)amino)but-2-en-1-one], the IC50 against Btk was under 100 nM; on Tec, under 100 nM; against EGFR, 100 to 1000 nM; on Lck it was 100 to 1000 nM; against C-src it was over 1000 nM; on Lyn, over 1000 nM. The IC50 was 100 to 1000 nM against RET, 100 to 1000 nM against BLK, under 100 nM at BMX and over 1000 nM at CSK.

For `CN(C/C=C/C(=O)N1CC[C@@H](n2nc(-c3ccc(F)cc3)c3c(N)ncnc32)C1)C1CCC1` [Example 11, (R,E)-1-(3-(4-amino-3-(4-fluorophenyl)-1H-pyrazolo[3,4-d]pyrimidin-1-yl)pyrrolidin-1-yl)-4-(cyclobutyl(methyl)amino)but-2-en-1-one], the IC50 is under 100 nM at Btk; under 100 nM on Tec; over 1000 nM at EGFR; 100 to 1000 nM on Lck; over 1000 nM at C-src; over 1000 nM on Lyn. Also, the IC50 at RET was over 1000 nM; on BLK, over 1000 nM; against BMX, under 100 nM; against CSK, over 1000 nM.

For the compound `Cc1ccc(-c2nn([C@@H]3CCN(C(=O)/C=C/CN(C)C4CCC4)C3)c3ncnc(N)c23)cc1` [Example 12, (R,E)-1-(3-(4-amino-3-p-tolyl-1H-pyrazolo[3,4-d]pyrimidin-1-yl)pyrrolidin-1-yl)-4-(cyclobutyl(methyl)amino)but-2-en-1-one], the IC50 against Btk is under 100 nM; against Tec, under 100 nM; against EGFR, over 1000 nM; against Lck, 100 to 1000 nM; on C-src, 100 to 1000 nM; on Lyn, over 1000 nM. The half-maximal inhibitory concentration (IC50) against RET was 100 to 1000 nM; against BLK, 100 to 1000 nM; against BMX it was under 100 nM; against CSK, over 1000 nM.

Consider `COc1cccc(-c2nn([C@@H]3CCN(C(=O)/C=C/CN(C)C4CCC4)C3)c3ncnc(N)c23)c1` [Example 13, (R,E)-1-(3-(4-amino-3-(3-methoxyphenyl)-1H-pyrazolo[3,4-d]pyrimidin-1-yl)pyrrolidin-1-yl)-4-(cyclobutyl(methyl)amino)but-2-en-1-one], for which the IC50 on Btk is under 100 nM; against Tec, under 100 nM; against EGFR it was over 1000 nM; against Lck, 100 to 1000 nM; against C-src it was over 1000 nM; against Lyn it was over 1000 nM. The IC50 at RET was over 1000 nM; against BLK it was 100 to 1000 nM; against BMX it was under 100 nM; at CSK it was over 1000 nM.
